Molecules are shown by their SMILES.

The subject of the first data set is HCV replicon (1b) cells. The data set can be described thus: Cell-based HCV replicon assay.
Conditions: not given
The protocol: To measure cell-based anti-HCV activity of selected compounds of the present invention, replicon cells were seeded at 5000 cells/well in 96-well collagen I-coated Nunc plates in the presence of the test compound. […]. Cells were harvested on day 3 by the addition of 1× cell lysis buffer (Ambion cat #8721). The replicon RNA level was measured using real time PCR (Taqman assay). The amplicon was located in 5B. The PCR primers were: 5B.2F, […] (SEQ ID. NO. 1); 5B.2R, […] (SEQ ID. NO. 2); the probe sequence was FAM-labeled […] (SEQ ID. NO. 3). GAPDH RNA was used as endogenous control and was amplified in the same reaction as NS5B (multiplex PCR) using primers and VIC-labeled probe recommended by the manufacturer (PE Applied Biosystem). The real-time RT-PCR reactions were run on ABI PRISM 7900HT Sequence Detection System using the following program: 48° C. for 30 minutes, 95° C. for 10 minutes, 40 cycles of 95° C. for 15 sec, 60° C. for 1 minute. The ΔCT values (CT5B-CTGAPDH) were plotted against the concentration of test compound and fitted to the sigmoid dose-response model using XLfit4 (MDL). […]; Alternatively, to quantitate the absolute amount of replicon RNA, a standard curve was established by including serially diluted T7 transcripts of replicon RNA in the Taqman assay. All Taqman reagents were from PE Applied Biosystems. Such an assay procedure was described in detail in e.g. Malcolm et al., Antimicrobial Agents and Chemotherapy 50: 1013-1020 (2006).
A general note: In antiviral work, replicon cells carry a viral genome segment that copies itself.
`C[C@@]1(S(C)(=O)=O)[C@H](O)[C@@H](CO)O[C@H]1n1ccc(N)nc1=O` [Compound 3] gave a 50% effective concentration (EC50) above 100 µM.
The same measure, in the same setting: in the case of `C[C@@]1(n2ccnn2)[C@H](O)[C@@H](CO)O[C@H]1n1ccc(N)nc1=O` [Compound 4] it was above 100 µM; in that of `C[C@@]1(Cl)[C@H](O)[C@@H](CO)O[C@H]1n1ccc(N)nc1=O` [Compound 6], 10 µM; in that of `CC(=O)N[C@]1(C)[C@H](O)[C@@H](CO)O[C@H]1n1ccc(N)nc1=O` [Compound 9], 100 µM.
On the same count and under the same terms, in the case of `CCOc1nc(N)nc2c1ncn2[C@@H]1O[C@H](CO)[C@@H](O)[C@@]1(C)N` [Compound 10] it was 29 µM.

The same data set, now with this note: Hepatitis C virus, 72 h, replicon RNA level by real time PCR, cells harvested on day 3.
For `CCOc1nc(N)nc2c1ncn2[C@@H]1O[C@H](COP(=O)(N[C@@H](C)C(=O)OC)Oc2ccccc2)C(O)[C@@]1(C)N` (single isomer, unassigned) [Compound 21], the EC50 is 2.6 µM.
As for `CCOC(=O)[C@H](C)NP(=O)(OC[C@H]1O[C@@H](n2cnc3c(OC)nc(N)nc32)[C@](C)(N)C1O)Oc1ccccc1` (single isomer, unassigned) [Compound 28], a half-maximal response (EC50) required 0.1 µM.
The same measure, in the same setting: as for `CC(C)COC(=O)[C@H](C)NP(=O)(OC[C@H]1O[C@@H](n2ccc(N)nc2=O)[C@](C)(N)[C@@H]1O)Oc1ccccc1` (single isomer, unassigned) [Compound 64], the figure is 6.6 µM.
Still for that read-out and setting: as for `CC(C)COC(=O)[C@H](C)NP(=O)(OC[C@H]1O[C@@H](n2ccc(=O)[nH]c2=O)[C@](C)(N)[C@@H]1O)Oc1ccccc1` (single isomer, unassigned) [Compound 67], the figure is 6.8 µM; as for `COC(=O)[C@H](C)NP(=O)(OC[C@H]1O[C@@H](n2ccc(N)nc2=O)[C@](C)(Cl)[C@@H]1O)Oc1ccccc1` (stereo partly drawn) [Compound 8], 34 µM; as for `CCOc1nc(N)nc2c1ncn2[C@@H]1O[C@H](COP(=O)(N[C@@H](C)C(=O)OC)Oc2ccccc2)C(O)[C@@]1(C)NC(N)=O` (stereo partly drawn) [Compound 12], above 100 µM.
Same read-out and setting: in the case of `COc1nc(N)nc2c1ncn2[C@@H]1O[C@H](CO)[C@@H](O)[C@@]1(C)N` [Compound 15] it was above 100 µM; in that of `C[C@@]1(N)[C@H](O)[C@@H](CO)O[C@H]1n1ccc(=O)[nH]c1=O` [Compound 16], above 100 µM.
Take `C[C@@]1(N)[C@H](O)[C@@H](CO)O[C@H]1n1cnc2c(N3CCC3)nc(N)nc21` [Compound 17]: the concentration for a half-maximal effect (EC50) was above 100 µM.
The same measure, in the same setting: in the case of `CCOc1nc(N)nc2c1ncn2[C@@H]1O[C@H](COP(=O)(N[C@@H](C)C(=O)OC)Oc2ccccc2)[C@@H](O)[C@@]1(C)SC` (stereo partly drawn) [Compound 43] it was 38 µM; in that of `CCCCOC(=O)[C@H](C)NP(=O)(OC[C@H]1O[C@@H](n2cnc3c(OCC)nc(N)nc32)[C@](C)(SC)[C@@H]1O)Oc1cccc2ccccc12` (stereo partly drawn) [Compound 44], 24 µM.
Still for that read-out and setting: as for `CC(C)OP1(=O)OC[C@H]2O[C@@H](n3ccc(N)nc3=O)[C@](C)(N)[C@@H]2O1` (stereo partly drawn) [Compound 78], the figure is 30 µM.
Turning to `C[C@@]1(N)[C@@H]2OP(=O)(OC3CCC3)OC[C@H]2O[C@H]1n1ccc(N)nc1=O` (stereo partly drawn) [Compound 79], the EC50 worked out at 2.8 µM.

The same data set, now with this note: replicon RNA level by real time PCR, cells harvested on day 3.
Consider `COc1nc(N)nc2c1ncn2[C@@H]1O[C@H](COP(=O)(N[C@@H](C)C(=O)OC(C)C)Oc2ccccc2)C(O)[C@@]1(C)N` (single isomer, unassigned) [Compound 22], for which the EC50 stood at 2.6 µM.
For `COc1nc(N)nc2c1ncn2[C@@H]1O[C@H](COP(=O)(N[C@@H](C)C(=O)OC(C)C)Oc2ccccc2)C(O)[C@@]1(C)N` (single isomer, unassigned) [Compound 23], the concentration giving a half-maximal response (EC50) was above 100 µM.
In turn, `CCOC(=O)[C@H](C)NP(=O)(OC[C@H]1O[C@@H](n2cnc3c(OC)nc(N)nc32)[C@](C)(N)C1O)Oc1ccccc1` (single isomer, unassigned) [Compound 29] yielded an EC50 of 0.1 µM.
Same read-out and setting: as for `COc1nc(N)nc2c1ncn2[C@@H]1O[C@H](COP(=O)(N[C@@H](C)C(=O)OCC(C)(C)C)Oc2ccccc2)C(O)[C@@]1(C)N` (single isomer, unassigned) [Compound 52], the figure is 0.9 µM; as for `COc1nc(N)nc2c1ncn2[C@@H]1O[C@H](COP(=O)(N[C@@H](C)C(=O)OCC(C)(C)C)Oc2ccccc2)C(O)[C@@]1(C)N` (single isomer, unassigned) [Compound 53], 2.7 µM; as for `CCOc1nc(N)nc2c1ncn2[C@@H]1O[C@H](COP(=O)(N[C@@H](C)C(=O)OCC(C)(C)C)Oc2ccccc2)C(O)[C@@]1(C)N` (single isomer, unassigned) [Compound 54], 1.5 µM.
On the same count and under the same terms, in the case of `CCOc1nc(N)nc2c1ncn2[C@@H]1O[C@H](COP(=O)(N[C@@H](C)C(=O)OCC(C)(C)C)Oc2ccccc2)C(O)[C@@]1(C)N` (single isomer, unassigned) [Compound 55] it was 3.1 µM; in that of `C[C@H](NP(=O)(OC[C@H]1O[C@@H](n2ccc(=O)[nH]c2=O)[C@](C)(N)C1O)Oc1ccccc1)C(=O)OCC(C)(C)C` (single isomer, unassigned) [Compound 56], 0.7 µM.
`C[C@H](NP(=O)(OC[C@H]1O[C@@H](n2ccc(=O)[nH]c2=O)[C@](C)(N)C1O)Oc1ccccc1)C(=O)OCC(C)(C)C` (single isomer, unassigned) [Compound 57] had an EC50 of 9.9 µM.
The same measure, in the same setting: in the case of `C[C@H](NP(=O)(OC[C@H]1O[C@@H](n2ccc(N)nc2=O)[C@](C)(N)C1O)Oc1ccccc1)C(=O)OCC(C)(C)C` (single isomer, unassigned) [Compound 58] it was 4.4 µM; in that of `C[C@H](NP(=O)(OC[C@H]1O[C@@H](n2ccc(N)nc2=O)[C@](C)(N)C1O)Oc1ccccc1)C(=O)OCC(C)(C)C` (single isomer, unassigned) [Compound 59], 11 µM; in that of `C[C@@]1(N)[C@H](O)[C@@H](CO)O[C@H]1n1ccc(N)nc1=O` [Compound 1], 100 µM.
Still for that read-out and setting: in the case of `COC(=O)[C@H](C)NP(=O)(OC[C@H]1O[C@@H](n2ccc(N)nc2=O)[C@](C)(n2ccnn2)[C@@H]1O)Oc1ccccc1` (stereo partly drawn) [Compound 5] it was 90 µM; in that of `COC(=O)[C@H](C)NP(=O)(OC[C@H]1O[C@@H](n2ccc(N)nc2=O)[C@](C)(SC)[C@@H]1O)Oc1ccccc1` (stereo partly drawn) [Compound 7], 29 µM.
In turn, `CCOc1nc(N)nc2c1ncn2[C@@H]1O[C@H](COP(=O)(N[C@@H](C)C(=O)OC)Oc2ccccc2)C(O)[C@@]1(C)N` (stereo partly drawn) [Compound 20] returned a half-maximal effective concentration (EC50) of 2.5 µM.
The same measure, in the same setting: in the case of `CC(C)OC(=O)[C@H](C)NP(=O)(OC[C@H]1O[C@@H](n2ccc(=O)[nH]c2=O)[C@](C)(N)[C@@H]1O)Oc1ccccc1` (stereo partly drawn) [Compound 24] it was 5 µM.
On the same count and under the same terms, in the case of `C[C@@]1(C(N)=O)[C@H](O)[C@@H](CO)O[C@H]1n1ccc(N)nc1=O` [Compound 85] it was 45 µM; in that of `COc1nc(N)nc2c1ncn2[C@@H]1O[C@@H]2COP(=O)(OC(C)C)O[C@H]2[C@@]1(C)N` (stereo partly drawn) [Compound 98], 43 µM.

A further data set has as its system replicon cells (1b-Con1). The data set can be described thus: Replicon activity assay (1b-Con1). Format: cell-based, HCV. Conditions: Hepatitis C virus, 72 h, three days post-dosing.
For the compound `CC(C)OC(=O)[C@H](C)NP(=O)(OC[C@H]1O[C@@H](n2ccc(N)nc2=O)[C@](C)(N)C1O)Oc1ccccc1` (stereo partly drawn), the EC50 came out at 5.5 µM.
The same measure, in the same setting: in the case of `C#C[C@]1(C)[C@H](O)[C@@H](COP(=O)(N[C@@H](C)C(=O)OC(C)C)Oc2ccccc2)O[C@H]1n1ccc(=O)[nH]c1=O` (stereo partly drawn) it was 2.3 µM; in that of `COc1nc(N)nc2c1ncn2[C@@H]1O[C@H](COP(=O)(N[C@@H](C)C(=O)OCC(C)(C)C)Oc2ccccc2)C(O)[C@@]1(C)N` (stereo partly drawn), 0.9 µM; in that of `C[C@H](NP(=O)(OC[C@H]1O[C@@H](n2ccc(=O)[nH]c2=O)[C@](C)(N)C1O)Oc1ccccc1)C(=O)OCC(C)(C)C` (stereo partly drawn), 0.7 µM.
Same read-out and setting: in the case of `C[C@H](NP(=O)(OC[C@H]1O[C@@H](n2ccc(N)nc2=O)[C@](C)(N)C1O)Oc1ccccc1)C(=O)OCC(C)(C)C` (stereo partly drawn) it was 4.4 µM.
On the same count and under the same terms, as for `CC(C)COC(=O)[C@H](C)NP(=O)(OC[C@H]1O[C@@H](n2ccc(N)nc2=O)[C@](C)(N)[C@@H]1O)Oc1ccccc1` (stereo partly drawn), the figure is 6.6 µM; as for `CC(C)OC(=O)[C@H](C)NP(=O)(OC[C@H]1O[C@@H](n2ccc(=O)[nH]c2=O)[C@](C)(N)[C@@H]1O)Oc1ccccc1` (stereo partly drawn) [drawing 239], 3.1 µM.
The compound `COc1nc(N)nc2c1ncn2[C@@H]1O[C@@H]2COP(=O)(OC(C)C)O[C@H]2[C@@]1(C)N` (stereo partly drawn) [drawing 240] returned a concentration for a half-maximal effect (EC50) of 43.7 µM.
Compound `CCOc1nc(N)nc2c1ncn2[C@@H]1O[C@H](COP(=O)(N[C@@H](C)C(=O)OC)Oc2ccccc2)[C@@H](O)[C@@]1(C)SC` (stereo partly drawn) [drawing 242] came in with an EC50 of 38 µM.

Another data set relates to replicon cells (1b-Con1). The data set can be described thus: Cytotoxicity MTS assay in replicon cells. Conditions: CC50, MTS assay, three days post dosing. A general note: Tetrazolium assays rely on reduction of a dye to a coloured formazan, in cell work by metabolically active cells.
Take `CC(C)OC(=O)[C@H](C)NP(=O)(OC[C@H]1O[C@@H](n2ccc(N)nc2=O)[C@](C)(N)C1O)Oc1ccccc1` (stereo partly drawn): the Cytotoxicity is above 100 µM.
Still for that read-out and setting: as for `C#C[C@]1(C)[C@H](O)[C@@H](COP(=O)(N[C@@H](C)C(=O)OC(C)C)Oc2ccccc2)O[C@H]1n1ccc(=O)[nH]c1=O` (stereo partly drawn), the figure is above 100 µM; as for `COc1nc(N)nc2c1ncn2[C@@H]1O[C@H](COP(=O)(N[C@@H](C)C(=O)OCC(C)(C)C)Oc2ccccc2)C(O)[C@@]1(C)N` (stereo partly drawn), above 100 µM; as for `C[C@H](NP(=O)(OC[C@H]1O[C@@H](n2ccc(=O)[nH]c2=O)[C@](C)(N)C1O)Oc1ccccc1)C(=O)OCC(C)(C)C` (stereo partly drawn), above 100 µM.
On the same count and under the same terms, in the case of `C[C@H](NP(=O)(OC[C@H]1O[C@@H](n2ccc(N)nc2=O)[C@](C)(N)C1O)Oc1ccccc1)C(=O)OCC(C)(C)C` (stereo partly drawn) it was above 100 µM.
Same read-out and setting: as for `CC(C)COC(=O)[C@H](C)NP(=O)(OC[C@H]1O[C@@H](n2ccc(N)nc2=O)[C@](C)(N)[C@@H]1O)Oc1ccccc1` (stereo partly drawn), the figure is 50 µM.
`CC(C)OC(=O)[C@H](C)NP(=O)(OC[C@H]1O[C@@H](n2ccc(=O)[nH]c2=O)[C@](C)(N)[C@@H]1O)Oc1ccccc1` (stereo partly drawn) [drawing 239]: the Cytotoxicity was above 100 µM.
The same measure, in the same setting: in the case of `COc1nc(N)nc2c1ncn2[C@@H]1O[C@@H]2COP(=O)(OC(C)C)O[C@H]2[C@@]1(C)N` (stereo partly drawn) [drawing 240] it was above 100 µM; in that of `CCOc1nc(N)nc2c1ncn2[C@@H]1O[C@H](COP(=O)(N[C@@H](C)C(=O)OC)Oc2ccccc2)[C@@H](O)[C@@]1(C)SC` (stereo partly drawn) [drawing 242], above 100 µM.

One may read the EC50 as the concentration giving half of the maximal effect.

The record behind these values is US9061041B2, “2′-substituted nucleoside derivatives and methods of use thereof for the treatment of viral diseases” (Merck Sharp & Dohme Corp., priority 2011, dated 2015).
